Reference: patent publication US20250215029A1 (Recludix Pharma, Inc., priority 2022, published 2025)
Read-outs that look alike come from different tables or passages of the source.

Assays:
pY705-STAT3 in PBMC = target: T1, pY705-STAT3 in PBMC (Homo sapiens, UniProt P40763); assay: MSD-pSTAT-PBMC Assay (pSTAT3, IL-6 stimulated); assay type: cell-based; conditions: compound 3 hrs, then 10 ng/mL IL-6 for 10 min
T1 construct: Cryopreserved Peripheral Blood Mononuclear Cells (PBMC) are from AllCells; host or cells: cryopreserved PBMC
T1 sequence (P40763 whole entry): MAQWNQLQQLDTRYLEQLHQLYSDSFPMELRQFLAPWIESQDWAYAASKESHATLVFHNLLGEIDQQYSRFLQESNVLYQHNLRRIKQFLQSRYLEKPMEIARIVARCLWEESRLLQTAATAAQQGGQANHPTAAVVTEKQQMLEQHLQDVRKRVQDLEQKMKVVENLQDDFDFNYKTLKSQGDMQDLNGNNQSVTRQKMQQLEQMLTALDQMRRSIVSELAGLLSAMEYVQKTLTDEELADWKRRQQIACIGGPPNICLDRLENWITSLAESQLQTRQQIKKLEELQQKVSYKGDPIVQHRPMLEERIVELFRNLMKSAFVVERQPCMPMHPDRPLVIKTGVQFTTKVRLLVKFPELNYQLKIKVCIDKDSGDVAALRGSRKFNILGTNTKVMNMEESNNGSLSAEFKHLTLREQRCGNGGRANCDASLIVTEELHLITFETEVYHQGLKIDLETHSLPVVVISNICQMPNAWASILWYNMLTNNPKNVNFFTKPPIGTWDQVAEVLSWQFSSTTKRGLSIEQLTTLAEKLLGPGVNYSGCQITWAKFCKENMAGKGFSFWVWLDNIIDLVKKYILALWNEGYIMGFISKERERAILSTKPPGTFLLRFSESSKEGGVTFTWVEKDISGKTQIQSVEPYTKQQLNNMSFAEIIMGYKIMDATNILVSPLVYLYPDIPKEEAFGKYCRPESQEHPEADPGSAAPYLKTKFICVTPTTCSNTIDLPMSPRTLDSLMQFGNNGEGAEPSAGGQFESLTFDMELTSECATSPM
Outline: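 Inhibition of cytokine-induced STAT phosphorylation was measured in recovered human PBMC after 3 hrs compound exposure and a 10 min IL-4 (1 ng/mL) or IL-6 (10 ng/mL) challenge. MSD detection of pY641-STAT6 or pY705-STAT3 yielded IC50 values.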

pY641-STAT6 in PBMC = target: T2, pY641-STAT6 in PBMC (Homo sapiens, UniProt P42226); assay: MSD-pSTAT-PBMC Assay (pSTAT6, IL-4 stimulated); assay type: cell-based; conditions: compound 3 hrs, then 1 ng/mL IL-4 for 10 min
T2 construct: Cryopreserved Peripheral Blood Mononuclear Cells (PBMC) are from AllCells; host or cells: cryopreserved PBMC
T2 sequence (P42226 1-847): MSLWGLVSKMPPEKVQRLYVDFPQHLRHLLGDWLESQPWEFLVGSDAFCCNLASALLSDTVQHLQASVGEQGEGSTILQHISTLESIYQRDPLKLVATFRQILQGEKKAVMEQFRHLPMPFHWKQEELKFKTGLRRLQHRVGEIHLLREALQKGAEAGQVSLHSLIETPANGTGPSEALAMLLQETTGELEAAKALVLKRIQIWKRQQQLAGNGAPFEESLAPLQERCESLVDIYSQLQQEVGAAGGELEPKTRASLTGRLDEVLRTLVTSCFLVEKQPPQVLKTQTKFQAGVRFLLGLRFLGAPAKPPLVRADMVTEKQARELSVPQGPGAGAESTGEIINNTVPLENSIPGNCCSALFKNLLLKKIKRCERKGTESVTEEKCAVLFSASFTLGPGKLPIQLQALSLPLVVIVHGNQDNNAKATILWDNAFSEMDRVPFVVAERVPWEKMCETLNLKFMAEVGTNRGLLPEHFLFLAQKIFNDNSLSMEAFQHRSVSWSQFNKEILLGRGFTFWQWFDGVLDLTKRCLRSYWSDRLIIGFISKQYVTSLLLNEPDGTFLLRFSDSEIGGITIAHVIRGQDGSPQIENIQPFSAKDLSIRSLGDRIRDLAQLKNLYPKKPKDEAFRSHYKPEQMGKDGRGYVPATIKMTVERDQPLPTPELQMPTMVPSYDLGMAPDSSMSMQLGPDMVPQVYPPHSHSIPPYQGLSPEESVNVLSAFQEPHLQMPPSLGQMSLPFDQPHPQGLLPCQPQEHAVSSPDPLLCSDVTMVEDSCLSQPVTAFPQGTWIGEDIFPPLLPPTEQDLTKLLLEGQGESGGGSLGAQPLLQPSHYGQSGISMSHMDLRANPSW
Outline: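 PBMC (human, cryopreserved, overnight recovery) + cpd 3 hrs → IL-6 10 ng/mL (STAT3) or IL-4 1 ng/mL (STAT6) ×10 min → lysis with protease/phosphatase inhibitors → MSD capture/phospho detection. IC50, variable slope, DMSO-normalized.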

[1] = PBMC, Table 1114, read-out: pSTAT3
[2] = PBMC, Table 1114, read-out: pSTAT6
[3] = PBMC, Table 115, read-out: STAT3

Compound | IC50 (pY705-STAT3 in PBMC; [1]) | IC50 (pY641-STAT6 in PBMC; [2]) | IC50 (pY705-STAT3 in PBMC; [3]) | IC50 (pY641-STAT6 in PBMC; STAT6, PBMC, Table 115) | other results
CC(C)(C)C(=O)SCCOP(=O)(OCCSC(=O)C(C)(C)C)C(F)(F)c1ccc2sc(C(=O)N[C@H]3CC4(CC[C@H]5CC[C@@H](C(=O)N6CC(c7cccnc7)C6)N5C3=O)CC4)cc2c1 [Compound 130, S,S′-((((difluoro(2-(((3′S,6′S,10a′S)-5′-oxo-3′-(3-(pyridin-3-yl)azetidine-1-carbonyl)octahydro-5′H-spiro [cyclopropane-1,8′-pyrrolo[1,2-a]azocin]-6′-yl)carbamoyl)benzo[b]thiophen-5-yl)methyl)phosphoryl)bis (oxy))bis (ethane-2,1-diyl)) bis(2,2-dimethylpropane-thioate)] | < 0.1 µM | > 3 µM |  |  | 
CC(C)(CO)C(=O)SCCOP(=O)(Oc1ccccc1)C(F)(F)c1ccc2sc(C(=O)N[C@H]3CCCC[C@H]4CC[C@@H](C(=O)N5C[C@@H](C#N)[C@H](c6cc[nH]c(=O)c6)C5)N4C3=O)cc2c1 (single isomer, unassigned) [Compound 1091] |  |  | > 3 µM | > 3 µM | 
CCCOC(=O)[C@H](C)NP(=O)(Cc1ccc2ccc(C(=O)N[C@H]3CCCC[C@H]4CC[C@@H](C(=O)N5CC(c6ccccc6)CC56CC6)N4C3=O)cc2c1)Oc1ccccc1 (stereo partly drawn) [Compound 421, propyl (((7-(((3S,6S,10aS)-5-oxo-3-(6-phenyl-4-azaspiro[2.4]heptane-4-carbonyl)decahydropyrrolo[1,2-a]azocin-6-yl)carbamoyl)naphthalen-2-yl)methyl)(phenoxy)phosphoryl)-L-alaninate] |  |  | > 3 µM | 0.1 to 1 µM | 
CC(C)CC(=O)SCCOP(=O)(Oc1cccc(C#N)c1)C(F)(F)c1ccc2sc(C(=O)N[C@H]3CCCC[C@H]4CC[C@@H](C(=O)N5C[C@H](c6ccccc6)[C@@H](C#N)C5)N4C3=O)cc2c1 (single isomer, unassigned) [Compound 1007] |  |  |  | 0.1 to 1 µM | IC50 (pY705-STAT3 in PBMC; STAT3, PBMC, Table 115): > 3 µM
CCCOC(=O)[C@H](C)NP(=O)(Oc1ccccc1)C(F)(F)c1ccc2ccc(C(=O)N[C@H]3CCCC[C@H]4CC[C@@H](C(=O)N5CC(c6ccccc6)CC56CC6)N4C3=O)cc2c1 (stereo partly drawn) [Compound 403, propyl ((difluoro(7-(((3S,6S,10aS)-5-oxo-3-(6-phenyl-4-azaspiro[2.4]heptane-4-carbonyl)decahydropyrrolo[1,2-a]azocin-6-yl)carbamoyl)naphthalen-2-yl)methyl)(phenoxy)phosphoryl)-L-alaninate] |  |  | > 3 µM | 0.1 to 1 µM | 
CCCOC(=O)[C@H](C)NP(=O)(Cc1ccc2sc(C(=O)N[C@H]3CCC[C@H]4CC[C@@H](C(=O)N5CCC(c6cccnc6)C5)N4C3=O)cc2c1)Oc1ccccc1 (stereo partly drawn) [Compound 252, propyl (((2-(((3S,6S,9aS)-5-oxo-3-(3-(pyridin-3-yl)pyrrolidine-1-carbonyl)octahydro-1H-pyrrolo[1,2-a]azepin-6-yl)carbamoyl)benzo [b]thiophen-5-yl)methyl)(phenoxy)phosphoryl)-L-alaninate] |  |  | 1 to 3 µM | 0.1 to 1 µM | 
CC(C)(C)C(=O)SCCOP(=O)(Oc1cccc(C#N)c1)C(F)(F)c1ccc2sc(C(=O)N[C@H]3CCCC[C@H]4CC[C@@H](C(=O)N5C[C@@H](C#N)[C@H](c6ccccc6)C5)N4C3=O)cc2c1 (single isomer, unassigned) [Compound 137, S-(2-((((2-(((3S,6S,10aS)-3-((3S,4R or 3R,4S)-3-cyano-4-phenylpyrrolidine-1-carbonyl)-5-oxodecahydro-pyrrolo[1,2-a]azocin-6-yl)carbamoyl)benzo[b]thiophen-5-yl)difluoromethyl)(3-cyanophenoxy)phosphoryl)oxy)ethyl)-2,2-dimethylpropane-thioate] | > 3 µM |  |  |  | IC50 (pY641-STAT6 in PBMC; pSTAT6, PBMC, Table 1114): 0.1 to 1 µM
CC(C)(C)C(=O)OCOP(=O)(OCOC(=O)C(C)(C)C)C(F)(F)c1ccc2sc(C(=O)N[C@H]3CCCC[C@H]4CCC[C@@H](C(=O)N5CC(n6ccnc6)C5)N4C3=O)cc2c1 [Compound 171, ((((2-(((4S,7S,11aS)-4-(3-(1H-imidazol-1-yl)azetidine-1-carbonyl)-6-oxodecahydro-2H-pyrido[1,2-a]azocin-7-yl)carbamoyl)benzo[b]thiophen-5-yl)difluoromethyl)phosphoryl)bis(oxy)) bis(methylene) bis(2,2-dimethylpropanoate)] | > 3 µM | > 3 µM |  |  | 
CC(C)(C)C(=O)OCOP(=O)(OCOC(=O)C(C)(C)C)C(F)(F)c1ccc2ccc(C(=O)N[C@H]3CCCC[C@H]4CC[C@@H](C(=O)N5C[C@H](c6ccccc6)[C@@H](C#N)C5)N4C3=O)cc2c1 (relative stereo) [Compound 194, ((((7-(((3S,6S,10aS)-3-(rel-(trans)-3-cyano-4-phenyl-pyrrolidine-1-carbonyl)-5-oxodecahydro-pyrrolo[1,2-a]azocin-6-yl)carbamoyl)naphthalen-2-yl)difluoro-methyl)phos-phoryl)bis(oxy)) bis(methylene) bis(2,2-dimethyl-propanoate)] | 0.1 to 1 µM | < 0.1 µM |  |  | 
CCCOC(=O)[C@H](C)NP(=O)(Cc1ccc2sc(C(=O)N[C@H]3CCC[C@H]4CC[C@@H](C(=O)N5CC(c6cnccc6N(C)C)C5)N4C3=O)cc2c1)Oc1ccccc1 (stereo partly drawn) [Compound 973, propyl (((2-(((3S,6S,9aS)-3-(3-(4-(dimethylamino)pyridin-3-yl)azetidine-1-carbonyl)-5-oxooctahydro-1H-pyrrolo[1,2-a]azepin-6-yl)carbamoyl)benzo [b]thiophen-5-yl)methyl)(phenoxy)phosphoryl)-L-alaninate] |  |  | < 0.1 µM | > 3 µM | 
CC(C)(C)C(=O)SCCOP(=O)(OCCSC(=O)C(C)(C)C)C(F)(F)c1ccc2sc(C(=O)N[C@H]3CCCC[C@H]4CC[C@@H](C(=O)N5C[C@@H](C#N)[C@H](c6cc[nH]c(=O)c6)C5)N4C3=O)cc2c1 (relative stereo) [Compound 157, S,S′-(((((2-(((3S,6S,10aS)-3-(rel-(trans)-3-cyano-4-(2-oxo-1,2-dihydropyridin-4-yl)pyrrolidine-1-carbonyl)-5-oxodecahydro-pyrrolo[1,2-a]azocin-6-yl)carbamoyl)benzo [b]thiophen-5-yl)difluoromethyl)phosphoryl)bis(oxy))bis(ethane-2,1-diyl)) bis(2,2-dimethylpropane-thioate)] | 0.1 to 1 µM | 0.1 to 1 µM |  |  | 
CC(C)CC(=O)SCCOP(=O)(OCCSC(=O)CC(C)C)C(F)(F)c1ccc2ccc(C(=O)N[C@H]3CCCC[C@H]4CC[C@@H](C(=O)N5CC(n6ccnn6)[C@H](O)C5)N4C3=O)cc2c1 (relative stereo) [Compound 1086, S,S′-((((difluoro(7-(((3S,6S,10aS)-3-((rel-trans)-3-hydroxy-4-(1H-1,2,3-triazol-1-yl)pyrrolidine-1-carbonyl)-5-oxodecahydro-pyrrolo [1,2-a]azocin-6-yl)carbamoyl)naphthalen-2-yl)methyl)phosphoryl)bis(oxy))bis(ethane-2,1-diyl)) bis(3-methylbutanethioate)] |  |  | < 0.1 µM |  | IC50 (pY641-STAT6 in PBMC; PBMC, Table 115, read-out: STAT6): 0.1 to 1 µM
S,S′- ((((difluoro(2- (((3S,6S,9aS)-5-oxo-3- (3-(pyridin-3- yl)azetidine-1- carbonyl)octahydro- 1H-pyrrolo[1,2-a] azepin-6-yl) carbamoyl)benzo[b] thiophen-5-yl)methyl) phosphoryl)bis(oxy)) bis(ethane-2,1-diyl)) bis(2,2- dimethylpropanethioate) [Compound 175] | < 0.1 µM | 0.1 to 1 µM |  |  | 
CC(C)(C)C(=O)OCOP(=O)(OCOC(=O)C(C)(C)C)C(F)(F)c1ccc2sc(C(=O)N[C@H]3CCC[C@H]4CC[C@@H](C(=O)N5CC(C(=O)N6CCOCC6)C5)N4C3=O)cc2c1 [Compound 187, (((difluoro(2-(((3S,6S,9aS)-3-(3-(morpholine-4-carbonyl)azetidine-1-carbonyl)-5-oxooctahydro-1H-pyrrolo[1,2-a]azepin-6-yl)carbamoyl)benzo[b]thiophen-5-yl)methyl)phosphoryl)bis (oxy))bis (methylene) bis(2,2-dimethyl-propanoate)] | < 0.1 µM | 1 to 3 µM |  |  | 
